Source: PMC10096180, “Half-Sandwich Type Platinum-Group Metal Complexes of C-Glucosaminyl Azines: Synthesis and Antineoplastic and Antimicrobial Activities” (Molecules, 2023)
Read-outs that look alike come from different tables or passages of the source.

Tests used:
A2780 cells [1] = assay: MTT reduction assay, early toxicity, 4 h treatment; type: cell-based
Summary of the method: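 Cells plated the day before, exposed to compounds for 4 h, then MTT 0.5 mg/mL for 40–60 min at 37 °C; reduced dye dissolved in DMSO, read at 540 nm relative to vehicle wells. IC50 by four-parameter fit; otherwise % inhibition at 100 μM.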

A2780 cells [2] = assay: SRB binding assay, cytostasis, 48 h treatment; type: cell-based
Summary of the method: (§1)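 Ovarian cancer A2780 cells and primary human dermal fibroblasts treated 48 h, TCA-fixed, SRB-stained, absorbance at 540 nm relative to vehicle. IC50 from four-parameter fit when a plateau was reached or inhibition exceeded 90%; otherwise percent inhibition at 100 μM.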

[3] = target: primary human dermal fibroblasts; assay: SRB binding assay, cytostasis, 48 h treatment; type: cell-based; conditions: read-out: Fibroblast SRB IC50
Summary of the method: as §1

[4] = Distribution coefficient (logD), n-octanol-PBS; type: physicochemical; conditions: n-octanol-PBS (pH = 7.4) system
Protocol: The logD values of the newly synthesized complexes were determined according to a procedure described in our previous publications. page 64: Ir-7b +1.17 Rh-7b +1.41 Ru-7c +1.31 Os-7c +1.59 Ir-7c +1.40 Rh-7c +1.13 Ru-7d +1.26 Os-7d +1.42 Ir-7d +1.30 Rh-7d +1.04 Ru-7e +2.22 Os-7e +2.21 Ir-7e +1.39 Rh-7e +1.66 *logD was determined in an n-octanol-PBS (pH = 7.4) system 64 (14 pictures or pasted objects on this page, not shown here)

Capan2 cells = assay: SRB assay, 48 h; type: cell-based
Protocol: (§2) Figure 8 Assessment of free ligand 3a and complex Ru-3a for cytostatic activity in multiple carcinomas. […] Cells were treated with the compounds in the concentrations indicated for 48 h; then, an SRB assay was performed. Data are represented as average ± SD from three biological replicates; individual assays were performed in duplicates. Values were normalized for vehicle-treated cells; absorbance for vehicle-treated cells equals 1. Statistical significance was assessed using a one-way ANOVA test comparing all values to the lowest concentration of a compound. Before the test, normality was assessed using the Shapiro–Wilk test, and the post hoc test was chosen accordingly. […] An SRB assay measures protein content of cells in correlation with the cell number in an assay well and can therefore be used to assess cell proliferation or long-term cytostasis. Cells were seeded in 96-well plates the day before the assay. Cells were treated with the compounds for 48 h. Then medium was removed, and cells were fixed with 10% trichloroacetic acid. […] Stained cells were washed in 1% acetic acid 5 times; acetic acid was removed, and cells were left to dry. Protein-bound SRB was released by adding 100 μL 10 mM Tris base. Plates were measured in a plate photometer (Thermo Scientific Multiscan GO spectrophotometer, Waltham, MA, USA) at 540 nm. On each plate, wells were designed to contain vehicle-treated cells. […] Statistical analysis was performed using version 8.0.1 of GraphPad Prism. Values were tested for normal distribution using the Shapiro–Wilk normality test. […] In other cases, the percentage of inhibition was taken for the maximum concentration (100 μM).

ID8 cells = assay: SRB assay, 48 h; type: cell-based
Protocol: as §2

MCF7 cells = assay: SRB assay, 48 h; type: cell-based
Protocol: as §2

U251 cells = assay: SRB assay, 48 h; type: cell-based
Protocol: as §2

[5] = system: vancomycin-resistant Enterococcus (VRE) clinical isolates; assay: Broth microdilution MIC, clinical VRE isolates; type: cell-based, E. faecium; conditions: 24 h, 0.08–40 μM
Summary of the method: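 S. aureus and E. faecium clinical isolates (Debrecen, 2018–2020; MALDI-TOF-identified) tested by EUCAST broth microdilution in Mueller–Hinton broth at 5.0 × 10^5 CFU/mL across 0.08–40 μM (twofold). After 24 h at 37 °C, visually read; MIC is the lowest concentration giving ≥50% inhibition versus growth control. At least two runs in duplicate.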

IC50 (A2780 cells [2]): 1860 nM
IC50 [3]: 9620 nM
logD [4]: 2.72
IC50 (MCF7 cells): 2300 nM
IC50 (U251 cells): 3970 nM
MIC ([5]; clinical isolate 25,051 VRE, read-out: MIC 25,051 VRE): 5 µM
MIC ([5]; clinical isolate 25,498 VRE, read-out: MIC 25,498 VRE): 5 µM
MIC ([5]; clinical isolate 27,085 VRE, read-out: MIC 27,085 VRE): 5 µM
Structure (SMILES): Cc1ccc(C(C)C)cc1.F[P-](F)(F)(F)(F)F.N[C@@H]1[C@@H](OCc2ccccc2)[C@H](OCc2ccccc2)[C@@H](COCc2ccccc2)O[C@H]1c1ccccn1.[Cl][Ru+] [Ru-3a]
IC50 (A2780 cells [1]): 8020 nM
A2780 MTT Max Inhibition (A2780 cells [1]; inhibition at maximum concentration (100 μM) where no plateau, ND = not detectable): >90%
A2780 SRB Max Inhibition (A2780 cells [2]; up to 100 μM, ND = not detectable): >90%
Capan2 SRB Max Inhibition (Capan2 cells): >90%
IC50 (Capan2 cells): 2250 nM
IC50 (ID8 cells): 2540 nM
ID8 SRB Max Inhibition (ID8 cells): >90%
MCF7 SRB Max Inhibition (MCF7 cells): >90%
U251 SRB Max Inhibition (U251 cells): >90%
